{"source": "patent US20030008913A1", "about": "“Derivatives of 2,2-dimethyl 3(2-fluoro vinyl) cyclopropane carboxylic acid, their preparation process and their use as pesticides” (priority 1997, published 2003)", "test_system": "Blattela", "experiment": "Knockdown-effect against Blattela in a windtunnel (comparative example)", "format": "in vivo", "conditions": "Rate 0.003% w/v in 80% OPD 120 acetone mixture", "procedure": "The knockdown-effect at 30 seconds and 2 minutes of the compounds of Examples 14, 27, 43 and lmiprothrin, a commercially used pyrethroid, against Blattela was assessed.\nThe tests were carried out in a windtunnel. The active ingredient was diluted to 0.003% w/v in an 80% OPD 120 acetone mixture. Controls (i.e., sprayed with the carrier liquid alone) were inserted at the beginning of the test, and twice at the end."}
{"molecule": "C#CCN1CC(=O)N(COC(=O)[C@@H]2C(C=C(C)C)C2(C)C)C1=O", "note": "(mixture of isomers) [Imiprothrin]", "values": [{"measurement": "knockdown-effect at 30 sec.", "setting": "30 sec.", "result": 0, "unit": "%"}, {"measurement": "knockdown-effect at 2 min", "setting": "2 min", "result": 10, "unit": "%"}]}
